Experimental data published in PMC8039949, “A novel small-molecule PROTAC selectively promotes tau clearance to improve cognitive functions in Alzheimer-like models” (Theranostics, 2021).
Read-outs that look alike come from different tables or passages of the source.

Assays:
tau [1] = molecular target: tau (Mus musculus, UniProt P10637); experiment: Intragastrical gavage in wild-type mice, brain tau by Western blotting; type: in vivo; conditions: 4 m-old wild-type mice; intragastrical gavage 20 mg/kg; 48 h
Method: (§1) The cells or hippocampal/cortex tissues were homogenized for ~ 30 min on ice in buffer [50 mM Tris·HCl pH 7.4-7.5, 100 mM NaCl, 1% (vol/vol) Triton X-100, 5 mM EDTA, 1:100 PMSF, 1:1,000 protease inhibitor cocktail containing 4-(2-Aminoethyl)-benzenesulfonyl fluoride hydrochloride, aprotinin, bestatin, leupeptin, E-64, and pepstatin A stored at 4 °C], and then centrifuged at 12,000 × g at 4 °C for 20 min. The supernatant was collected and the protein levels were analyzed using bicinchoninic acid (BCA, KF016, Sigma-Aldrich) by following the manufacturer's instruction (served as soluble protein). The pellet was further incubated with 8% (wt/vol) SDS buffer at 4 °C and then treated by ultrasonic wave to reach a complete resuspension. The suspension was spun (18,000 × g, 4 °C for 20 min) and the supernatant collected (served as insoluble fraction). The supernatant of different faction was respectively mixed with loading buffer (3:1, vol/vol) containing 200 mM Tris-HCl, pH 6.8, 8% SDS, 40% glycerol, and boiled for 10 min. For Western blotting, the proteins were separated by 10% SDS-polyacrylamide gel via electrophoresis for about 2 h and transferred to nitrocellulose membranes (0.45 nm) for 1 h. […] Immunoreactive bands were quantitatively analyzed by Image J2x software.

tau [2] = molecular target: T1, tau (UniProt P10636+P40338, P618L); experiment: Multiple-doses subcutaneous administration in 3xTg-AD mice, brain tau; type: in vivo, mouse; conditions: 9.5 m-old 3xTg-AD mice, subcutaneous 3 mg/kg every 6 days, 5 times
T1 construct: tissue stock number 34830; host or cells: hippocampus and cortex of 9.5 m-old 3xTg-AD mice
Method: For brain surgery and stereotaxic cerebroventricular drug delivery, the mice were placed in a stereotaxic apparatus and anesthetized with 2% isoflurane (RWD Life Science, R510-22) through a nose cone (300-500 mL/min, RWD Life Science, China, R500). The scalp was incised along the midline between the ears after the mice were sterilized with iodophors and 75% (vol/vol) alcohol. The holes were drilled stereotaxically in the skull at a cerebroventricular location (posterior 0.22 mm, lateral 0.9 mm, and ventral 2.3 mm relative to bregma). Using a microinjection system (Shenzhen RWD Life Technology Co., Ltd; RWD 69100), C004019 (5 μL, 200 μM) was infused at a rate of 0.5 μL/min. The needle was kept in place for 10 min before withdrawal. After the skin was sutured, the mice were placed on a heater for analepsia. For subcutaneous injection, C004019 was diluted with 20% HP-β-CD and injected under the skin on the back neck to reach a final concentration of 3 mg/kg (low dose) or 15 mg/kg (high dose).
as §1, with “min.” for “min. For Western blotting, the proteins were separated by 10% SDS-polyacrylamide gel via electrophoresis for about 2 h and transferred to nitrocellulose membranes (0.45 nm) for 1 h.”, “software. […]” for “software.”

[3] = Pharmacokinetics study, plasma and brain concentration by LC-MS/MS; type: in vivo; conditions: male, mouse, sc, C57BL/6 mice, subcutaneous 3 mg/kg
Method: Male C57BL/6 mice (age of 6-8 weeks with bodyweight 21-23 g; N = 24) were purchased from JH Laboratory Animal Co. LTD. Subcutaneous injection dosing solution was prepared by diluting C004019 stock solution in 20% HP-β-CD in saline. The animals were administrated with C004019 at a dose of 3 mg/kg (10 mL/kg) via subcutaneous injection (N = 3 per timepoint), and then were anaesthetized via isoflurane at the designated time points, followed by collection of approximately 110 µL of blood sample into EDTA-2K tubes via retro-orbital puncture or cardiac puncture for terminal bleeding. The brain samples were collected at the designated time points after blood collection. All the samples were first maintained in wet ice and then the blood samples were centrifuged (2000 g, 4 °C, 5 min) to obtain plasma within 15 minutes post sampling. Afterwards, all the plasma samples and brain samples were stored at approximately -70 °C until analysis. The concentration of C004019 in plasma and brain was determined using liquid chromatograph mass spectrometry/mass spectrometry (LC-MS/MS) with a UPLC/MS-MS-015 (QTRAP 5500).

T1 sequence (P10636 1-383 isoform P10636-6 P243L): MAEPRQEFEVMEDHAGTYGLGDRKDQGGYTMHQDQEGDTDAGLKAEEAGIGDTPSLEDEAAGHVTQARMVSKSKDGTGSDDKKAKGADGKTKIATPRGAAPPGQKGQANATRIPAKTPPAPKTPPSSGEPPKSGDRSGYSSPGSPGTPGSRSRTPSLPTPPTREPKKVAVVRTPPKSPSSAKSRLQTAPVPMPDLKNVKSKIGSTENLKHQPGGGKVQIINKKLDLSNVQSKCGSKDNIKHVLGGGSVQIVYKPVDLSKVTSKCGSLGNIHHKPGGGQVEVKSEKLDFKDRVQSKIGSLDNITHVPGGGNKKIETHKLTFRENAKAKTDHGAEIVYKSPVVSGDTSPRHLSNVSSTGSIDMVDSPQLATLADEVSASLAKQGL
T1 sequence (P40338 whole entry): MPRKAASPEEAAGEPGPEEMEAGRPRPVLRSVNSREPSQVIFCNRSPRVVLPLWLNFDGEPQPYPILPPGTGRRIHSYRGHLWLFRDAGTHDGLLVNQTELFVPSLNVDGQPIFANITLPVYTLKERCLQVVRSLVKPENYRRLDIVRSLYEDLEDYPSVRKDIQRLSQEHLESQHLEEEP
T1 sequence (P83940 whole entry partner): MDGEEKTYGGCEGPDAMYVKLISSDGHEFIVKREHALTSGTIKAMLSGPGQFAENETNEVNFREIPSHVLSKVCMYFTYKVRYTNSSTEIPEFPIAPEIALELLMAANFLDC
T1 sequence (P62869 whole entry partner): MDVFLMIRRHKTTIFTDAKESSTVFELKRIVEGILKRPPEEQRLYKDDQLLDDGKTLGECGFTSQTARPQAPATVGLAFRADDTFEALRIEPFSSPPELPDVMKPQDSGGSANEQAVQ
Sequence of tau (Mus musculus, UniProt P10637) (P10637 114-430 isoform P10637-2 limits assumed): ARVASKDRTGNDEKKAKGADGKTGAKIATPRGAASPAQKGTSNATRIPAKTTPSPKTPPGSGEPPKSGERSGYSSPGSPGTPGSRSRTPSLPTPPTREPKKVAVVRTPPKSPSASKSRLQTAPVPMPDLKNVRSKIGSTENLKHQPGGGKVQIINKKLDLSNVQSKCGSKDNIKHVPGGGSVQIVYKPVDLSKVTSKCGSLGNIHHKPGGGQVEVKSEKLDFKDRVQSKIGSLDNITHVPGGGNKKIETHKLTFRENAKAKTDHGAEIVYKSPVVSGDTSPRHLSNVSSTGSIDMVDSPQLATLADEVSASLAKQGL

oligomer tau (T22-positive) in the soluble fraction (tau [2]; Western blotting): significantly reduced T22-positive tau
brain-to-plasma Cmax ratio ([3]; brain/plasma, read-out: ratio of brain tissue maximal concentration to the plasma maximal concentration (Kpuu value)): 0.00866
AUC(0-inf) ([3]; brain, read-out: AUCINF in brain): 12.6 ng·h/mL
AUC(0-t) ([3]; brain, read-out: AUClast in brain): 8.42 ng·h/mL
Cmax ([3]; brain, read-out: Cmax in brain (maximal brain concentration)): 10.8 ng/mL
MRT inf ([3]; brain, read-out: MRTINF in brain): 1.8 h
half-life ([3]; brain, read-out: T1/2 in brain (converted)): 1.29 h
Tmax ([3]; brain, read-out: Tmax in brain): 0.167 h
AUC(0-inf) ([3]; plasma, read-out: AUCINF in plasma): 1800 ng·h/mL
AUC(0-t) ([3]; plasma, read-out: AUClast in plasma): 1190 ng·h/mL
Cmax ([3]; plasma, read-out: Cmax in plasma): 1250 ng/mL
MRT inf ([3]; plasma, read-out: MRTINF in plasma): 1.87 h
half-life ([3]; plasma, read-out: T1/2 in plasma (converted)): 1.33 h
Tmax ([3]; plasma, read-out: Tmax in plasma): 0.167 h
SMILES: CC(=O)N1CCCN(c2nc(NCCc3cccs3)nc(N(C)CC(=O)NCCOCCOCCOCC(=O)N[C@H](C(=O)N3C[C@H](O)C[C@H]3C(=O)NCc3ccc(-c4scnc4C)cc3)C(C)(C)C)n2)CC1 [C004019]
tau level in hippocampus and cortex (tau [1]): no significant tau reduction was detected
p-tau and aggregated tau (pS404, AT8 immunohistochemistry, Thioflavin S staining) (tau [2]): Reduction of p-tau and aggregated tau proteins
soluble and insoluble tau levels in hippocampal and cortex extracts (tau [2]; Western blotting): remarkably reduced both soluble and insoluble tau levels
